Experimental data as given in patent US9133206B2, “Benzodiazepine and pyridodiazepine derivatives” (AbbVie Inc., priority 2010, dated 2015).

System: SK-N-SH human neuroblastoma cells
Experiment: Serum Deprivation/JC-1 Mitochondrial Membrane Potential (MMP) Assay
Format: cell-based
Conditions: Homo sapiens, SK-N-SH; for EC50: 18 h, serum deprivation ~18 hours, JC-1 ratio normalized to peak value for 10 μM dimebolin, single curve fit to mean data of n=2-3; for Emax: percent maximal intensity in JC-1 ratio normalized to peak value for 10 μM dimebolin, serum deprivation, read-out: JC-1 max %
Text: The method also involves a high-throughput assay using serum-deprivation conditions involving neuronal cells to screen for compounds that increase or preserve mitochondrial membrane potential. Such compounds can be found to aid in rescuing cells from energy-depletion that occurs in several neurodegenerative states. Mitochondrial-mediated apoptosis occurs in response to a wide range of apoptotic stimuli including p^53, c-myc, DNA damage, prooxidants, chemotherapeutic agents, serum starvation and death receptor activation (Lin C—H., Lu Y-Z., Cheng, F-C., Chu L-F. and Hsuch C-M. Bax-regulated mitochondrial-mediated apoptosis is responsible for the in vitro ischemia induced neuronal cell death of Sprague Dawley rat. Neuroscience Lett. 2005, 387, 22-27).
Thus, this stress inducer, serum deprivation, combined with monitoring changes in the mitochondrial membrane potential in a 96-well format allows for the establishment of an efficient high-throughput screen (HTS) in order to evaluate the ability of compounds to increase mitochondrial membrane potential in the presence of stress and preserve health of the cell. Exemplary procedures for conducting such high-throughput assay are provided below.
SK-N-SH human neuroblastoma cells obtained from American Type Culture Collection (Rockville, Md.) were maintained in the log phase of growth in Minimal Essential Media (MEM), 10% heat inactivated fetal calf serum and 100 units/mL antibiotic-antimycotic (AA). Cells were cultured and maintained in a humidified incubator at 37° C. under 5% CO2 and 95% air. Cells were trypsinized (0.25%) and subcultured every 3 days and used from 15-18 passages. All cell culture supplies were obtained from Invitrogen (Carlsbad, Calif.).
SK-N-SH cells were plated 2-3 days in advance at a concentration of 50,000 cells/well onto collagen coated black-walled 96 well plates (Becton-Dickinson, Bedford, Mass.) in a total volume of […]. On day of experimental treatment, the media containing serum was aspirated from each well and rinsed once with MEM/1% AA without serum. The cells then were incubated overnight in 100 μL of MEM/1% AA (no serum) with and without dimebolin or novel chemical entities overnight for ˜18 hours. The following day, JC-1 dye (5,5′,6,6′-tetrachloro-1,1′,3,3′-tetraethylbenzimidazolcarbocyanide) was diluted 1:10 into MEM media according to the JC-1 Mitochondrial Membrane Potential Assay Kit: (Cayman Chemical Company, Ann Arbor, Mich.) and then 10 μL of the JC-1 dye solution was added to each well. The plates were centrifuged for 5 minutes at 400×g at room temperature followed by 40 minute incubation at 37° C. The plates were washed twice with 200 μL of provided Assay Buffer followed an addition of 100 μL of Assay Buffer to each well. The plates were read with an excitation and emission of 560 nm and 595 nM for red fluorescence and with an excitation and emission of 485 nm and 535 nM for green fluorescence to determine the final JC-1 value taking the red to green fluorescence ratio. This assay is based on change in mitochondrial membrane potential (MMP) using this lipophilic cationic dye, JC-1, by monitoring the changes in the ratio of red to green fluorescence as the MMP depolarizes. This change in MMP reflects the health of the cell with healthy, viable cells have a high JC-1 ratio and high MMP whereas apoptotic, unhealthy cells have a low JC-1 ratio or low MMP.
For the ability of compounds to reverse the stress due to serum deprivation and increase the JC-1 ratio, the percent maximal intensity in JC-1 ratio was normalized to that induced by the peak value for 10 μM dimebolin and plotted against the compound concentration to calculate EC50 values and to control for plate-to-plate variability. Concentration-response data were analyzed using GraphPad Prism (San Diego, Calif.); the EC50 values were derived from a single curve fit to the mean data of n=2-3, in duplicates. […]

Which EC50 does the source give for `O=C(Cc1ccc(Cl)cc1)N1CCC2CN(Cc3ccccc3)CCN2c2ncccc21` (centres unmarked) [Example 53, 1-(9-benzyl-7,7a,8,9,10,11-hexahydropyrazino[1,2-d]pyrido[3,2-b][1,4]diazepin-5(6H)-yl)-2-(4-chlorophenyl)ethanone] here?
The EC50 was 9.88 µM.

And the Emax?
Its Emax is 210%.

`Clc1ccc(CCN2CCC3CN(Cc4ccccc4)CCN3c3ncccc32)cc1` (centres unmarked) [Example 54, 9-benzyl-5-[2-(4-chlorophenyl)ethyl]-5,6,7,7a,8,9,10,11-octahydropyrazino[1,2-d]pyrido[3,2-b][1,4]diazepine] was tested. Which EC50 did it give?
Its EC50 is 3.59 µM.

And the Emax?
Its Emax is 177%.

With `CN1CCC2CN(Cc3ccccc3)CCN2c2ncccc21` (centres unmarked) [Example 55, 9-benzyl-5-methyl-5,6,7,7a,8,9,10,11-octahydropyrazino[1,2-d]pyrido[3,2-b][1,4]diazepine] as the molecule, how does the EC50 read?
The EC50 was 9.95 µM.

What about the Emax of the same molecule?
The Emax was 99%.

`Fc1ccc(CN2CCN3c4ccccc4CN(Cc4ccc(Br)cc4)CC3C2)cc1` (centres unmarked) [Example 56, 6-(4-bromobenzyl)-3-(4-fluorobenzyl)-1,2,3,4,4a,5,6,7-octahydropyrazino[1,2-a][1,4]benzodiazepine] was tested. Which EC50 did it give?
The EC50 was 5.17 µM.

What about the Emax of the same molecule?
Its Emax is 161%.

For `CN1CCN2c3ccccc3CN(Cc3ccc(Br)cc3)CC2C1` (centres unmarked) [Example 57, 6-(4-bromobenzyl)-3-methyl-1,2,3,4,4a,5,6,7-octahydropyrazino[1,2-a][1,4]benzodiazepine], which EC50 is on record?
Its EC50 is 10.2 µM.

What about the Emax of the same molecule?
The Emax was 167%.

How did the EC50 turn out when `CC1(C)C(C(=O)N2CCC3CN(Cc4ccccc4)CCN3c3ncccc32)C1(C)C` (centres unmarked) [Example 58, (9-benzyl-7,7a,8,9,10,11-hexahydropyrazino[1,2-d]pyrido[3,2-b][1,4]diazepin-5(6H)-yl)(2,2,3,3-tetramethylcyclopropyl)methanone] was run?
The EC50 was 3.65 µM.

And the Emax?
Its Emax is 215%.

Which results are given for `CC1(C)C(CN2CCC3CN(Cc4ccccc4)CCN3c3ncccc32)C1(C)C` (centres unmarked) [Example 59, 9-benzyl-5-[(2,2,3,3-tetramethylcyclopropyl)methyl]-5,6,7,7a,8,9,10,11-octahydropyrazino[1,2-d]pyrido[3,2-b][1,4]diazepine]?
EC50: 3.4 µM; Emax: 306%

With `O=C(Cc1ccc(Cl)nc1)N1Cc2ccccc2N2CCN(Cc3ccccc3)CC2C1` (centres unmarked) [Example 60, 1-(3-benzyl-1,2,3,4,4a,5-hexahydropyrazino[1,2-a][1,4]benzodiazepin-6(7H)-yl)-2-(6-chloropyridin-3-yl)ethanone] as the molecule, how does the EC50 read?
The EC50 was 4.14 µM.

And the Emax?
The Emax was 224%.

For `Clc1ccc(CCN2Cc3ccccc3N3CCN(Cc4ccccc4)CC3C2)cn1` (centres unmarked) [Example 63, 3-benzyl-6-[2-(6-chloropyridin-3-yl)ethyl]-1,2,3,4,4a,5,6,7-octahydropyrazino[1,2-a][1,4]benzodiazepine], which EC50 is on record?
The EC50 was 1.95 µM.

And the Emax?
The Emax was 173%.

With `Fc1ccc(CN2CCN3c4ncccc4N(CC4CC4)CCC3C2)cc1` (centres unmarked) [Example 64, 5-(cyclopropylmethyl)-9-(4-fluorobenzyl)-5,6,7,7a,8,9,10,11-octahydropyrazino[1,2-d]pyrido[3,2-b][1,4]diazepine] as the molecule, how does the EC50 read?
The EC50 was 5.66 µM.

And the Emax?
Its Emax is 139%.

With `Fc1ccc(CN2CCN3c4ncccc4N(CC4CCC4)CCC3C2)cc1` (centres unmarked) [Example 65, 5-(cyclobutylmethyl)-9-(4-fluorobenzyl)-5,6,7,7a,8,9,10,11-octahydropyrazino[1,2-d]pyrido[3,2-b][1,4]diazepine] as the molecule, how does the EC50 read?
Its EC50 is 4.59 µM.

And the Emax?
The Emax was 133%.

Which EC50 does the source give for `CC(C)(C)OC(=O)N1CCN2c3ccccc3CN(Cc3ccc(Br)cc3)CC2C1` (centres unmarked) [Example 66, tert-butyl 6-(4-bromobenzyl)-1,2,4a,5,6,7-hexahydropyrazino[1,2-a][1,4]benzodiazepine-3(4H)-carboxylate] here?
Its EC50 is 4.84 µM.

And the Emax?
The Emax was 192%.

Which EC50 does the source give for `CC(C)(C)OC(=O)N1CCN2c3ccccc3CN(Cc3ccc(Br)cc3)C(=O)C2C1` (centres unmarked) [Example 67, tert-butyl 6-(4-bromobenzyl)-5-oxo-1,2,4a,5,6,7-hexahydropyrazino[1,2-a][1,4]benzodiazepine-3(4H)-carboxylate] here?
The EC50 was 5.06 µM.

And the Emax?
Its Emax is 215%.

How did the EC50 turn out when `Fc1ccc(CN2CCN3c4ncccc4N(C[C@@H]4CCN4)CCC3C2)cc1` (stereo partly drawn) [Example 68, 5-[(2S)-azetidin-2-ylmethyl]-9-(4-fluorobenzyl)-5,6,7,7a,8,9,10,11-octahydropyrazino[1,2-d]pyrido[3,2-b][1,4]diazepine] was run?
The EC50 was 8.64 µM.

What about the Emax of the same molecule?
The Emax was 157%.

How did the EC50 turn out when `Fc1ccc(CN2CCN3c4ncccc4N(CC4CNC4)CCC3C2)cc1` (centres unmarked) [Example 69, 5-(azetidin-3-ylmethyl)-9-(4-fluorobenzyl)-5,6,7,7a,8,9,10,11-octahydropyrazino[1,2-d]pyrido[3,2-b][1,4]diazepine] was run?
Its EC50 is 10.3 µM.

What about the Emax of the same molecule?
The Emax was 154%.

For `O=C1C2CNCCN2c2ccccc2CN1Cc1ccc(Br)cc1` (centres unmarked) [Example 70, 6-(4-bromobenzyl)-2,3,4,4a,6,7-hexahydropyrazino[1,2-a][1,4]benzodiazepin-5(1H)-one], which EC50 is on record?
The EC50 was 9.61 µM.

And the Emax?
The Emax was 156%.

How did the EC50 turn out when `Brc1ccc(CN2Cc3ccccc3N3CCNCC3C2)cc1` (centres unmarked) [Example 71, 6-(4-bromobenzyl)-1,2,3,4,4a,5,6,7-octahydropyrazino[1,2-a][1,4]benzodiazepine] was run?
Its EC50 is 7.85 µM.

What about the Emax of the same molecule?
The Emax was 105%.

With `O=C(C1CC1)N1CCC2CNCCN2c2ncccc21` (centres unmarked) [Example 72, cyclopropyl(7,7a,8,9,10,11-hexahydropyrazino[1,2-d]pyrido[3,2-b][1,4]diazepin-5(6H)-yl)methanone] as the molecule, how does the EC50 read?
Its EC50 is 13.3 µM.

What about the Emax of the same molecule?
The Emax was 98%.

With `O=C1C2CN(Cc3ccc(F)cc3)CCN2c2ccccc2CN1Cc1ccc(Br)cc1` (centres unmarked) [Example 73, 6-(4-bromobenzyl)-3-(4-fluorobenzyl)-2,3,4,4a,6,7-hexahydropyrazino[1,2-a][1,4]benzodiazepin-5(1H)-one] as the molecule, how does the EC50 read?
Its EC50 is 4.27 µM.

And the Emax?
Its Emax is 229%.

With `O=C(c1cccnc1)N1CCN2c3ncccc3N(CC3CC3)CCC2C1` (centres unmarked) [Example 74, [5-(cyclopropylmethyl)-6,7,7a,8,10,11-hexahydropyrazino[1,2-d]pyrido[3,2-b][1,4]diazepin-9(5H)-yl](pyridin-3-yl)methanone] as the molecule, how does the EC50 read?
The EC50 was 7.82 µM.

And the Emax?
The Emax was 109%.

`O=C(N1CCOCC1)N1Cc2ccccc2N2CCNCC2C1` (centres unmarked) [Example 75, 1,2,3,4,4a,5-hexahydropyrazino[1,2-a][1,4]benzodiazepin-6(7H)-yl(morpholin-4-yl)methanone] was tested. Which EC50 did it give?
Its EC50 is > 10 µM.

What about the Emax of the same molecule?
Its Emax is 48%.

For `O=C(N1CCOCC1)N1Cc2ccccc2N2CCN(Cc3ccc(F)cc3)CC2C1` (centres unmarked) [Example 76, [3-(4-fluorobenzyl)-1,2,3,4,4a,5-hexahydropyrazino[1,2-a][1,4]benzodiazepin-6(7H)-yl](morpholin-4-yl)methanone], which EC50 is on record?
The EC50 was 7.06 µM.

And the Emax?
The Emax was 127%.

Which results are given for `CN1CCN2c3ccccc3CN(C(=O)N3CCOCC3)CC2C1` (centres unmarked) [Example 77, (3-methyl-1,2,3,4,4a,5-hexahydropyrazino[1,2-a][1,4]benzodiazepin-6(7H)-yl)(morpholin-4-yl)methanone]?
EC50: 10.2 µM; Emax: 57%

For `O=C(Cn1ncccc1=O)N1CCC2CN(Cc3ccccc3)CCN2c2ccccc21` (centres unmarked) [Example 78, 2-[2-(3-benzyl-2,3,4,4a,5,6-hexahydropyrazino[1,2-a][1,5]benzodiazepin-7(1H)-yl)-2-oxoethyl]pyridazin-3(2H)-one], which EC50 is on record?
The EC50 was 8.55 µM.

What about the Emax of the same molecule?
The Emax was 143%.

For `O=C(c1ccccc1)N1CCN2c3ccccc3CN(C(=O)N3CCOCC3)CC2C1` (centres unmarked) [Example 79, (3-benzoyl-1,2,3,4,4a,5-hexahydropyrazino[1,2-a][1,4]benzodiazepin-6(7H)-yl)(morpholin-4-yl)methanone], which EC50 is on record?
The EC50 was 9.25 µM.

And the Emax?
Its Emax is 86%.
